Experiment [1] has as its target T1, Enoyl-[acyl-carrier-protein] reductase [NADH] (Francisella tularensis subsp. novicida (strain U112), UniProt A0Q794).
T1 sequence (A0Q794 whole entry): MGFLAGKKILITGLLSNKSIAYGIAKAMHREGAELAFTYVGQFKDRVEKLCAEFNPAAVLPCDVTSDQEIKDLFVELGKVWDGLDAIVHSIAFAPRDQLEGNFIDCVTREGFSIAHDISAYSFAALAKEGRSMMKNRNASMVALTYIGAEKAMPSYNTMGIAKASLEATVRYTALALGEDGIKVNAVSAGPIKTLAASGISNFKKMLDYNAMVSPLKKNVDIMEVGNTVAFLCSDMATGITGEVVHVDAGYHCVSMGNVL
Briefly: Enzyme Inhibition Assay. To be noted: pH 8; 25 °C. The text has this:
Inhibition constant binding to E-NADH

Experiment [2] has as its target T1, Enoyl-[acyl-carrier-protein] reductase [NADH]. As to the kind of experiment: Enzyme Inhibition Assay. To be noted: pH 8; 25 °C. The text has this:
Inhibition constant binding to E-NAD+
This is another data set of the same source.

The Ki is the equilibrium dissociation constant of an inhibitor or competing ligand from its target. Read a low Ki as higher affinity. For the molecule `Oc1cc(Cl)ccc1Oc1ccc(Cl)cc1Cl`, the Ki in experiment [1] turned out to be 5000 nM; in experiment [2], 0.051 nM. Turning to `Cc1ccc(Oc2ccccc2)c(O)c1` [PT53], the Ki in experiment [1] is 247 nM; in experiment [2], 1.9 nM.

Consider `CCc1ccc(Oc2ccccc2)c(O)c1` [PT01], for which the Ki came out at 311 nM in experiment [1] and 2.1 nM in experiment [2]. For `CCCc1ccc(Oc2ccccc2)c(O)c1` [PT02] the same measures were 696 nM and 0.44 nM. As to `Oc1cc(F)ccc1Oc1ccccc1` [PT55], in experiment [2], the Ki stood at 289 nM. Regarding `CCCCCCCCc1ccc(Oc2ccccc2)c(O)c1` [5-Octyl-2-phenoxy-phenol], the figures for the Ki in experiment [1] and in experiment [2] were 192 nM and 23.6 nM, respectively.

As to `CCCCCCc1ccc(Oc2ccccc2)c(O)c1` [5-hexyl-2-phenoxyphenol], the results for the Ki in experiment [1] and in experiment [2] were 331 nM and 2.7 nM, respectively. On to `Oc1cc(Cl)ccc1Oc1ccccc1` [PT52], for which the Ki in experiment [1] worked out at 308 nM; in experiment [2], 1.9 nM.

Source of the values: BindingDB's records for doi:10.1021/cb800306y (Stony Brook University, 2009).
